Values quoted from earlier work as cited in patent US8790676B2, “Microencapsulated pesticide” (priority 2005, dated 2014).
Read-outs that look alike come from different tables or passages of the source.

Molecule	water-solubility (pH 7) [mg/mL]	water-solubility (at pH 4.0, 20° C.) [mg/mL]
CCN(Cc1ccc(Cl)nc1)/C(=C/[N+](=O)[O-])NC [Nitempyram, (E)-N-(6-chloro-3-pyridylmethyl)-N-ethyl-N′-methyl-2-nitrovinylidenediamine]	> 590	–
(E)-1-(2-chloro-1,3-thiazol-5-yl)-3-methyl-2-nitroguanidine [Clothianidin]	–	0.304
